Values of other authors as cited in patent US8697043B1, “Odor suppression of volatile organic analgesic compounds and method of use” (Chattem, Inc., priority 2013, dated 2014).

Tests used:
[1] = at 25° C.

Structure (SMILES) | Vapor pressure [1] [kPa] | Solubility in water
CC1CCC(C(C)C)C(O)C1 (centres unmarked) [Menthol] | 8.5 | neither menthol nor camphor are significantly soluble in water
CC12CCC(CC1=O)C2(C)C (centres unmarked) [camphor] | 86.7 | neither menthol nor camphor are significantly soluble in water
CCO [ethanol] | 5.9 | –
